Assay results published in patent US20100285000A1, “USE OF VEGFR-2 INHIBITORS FOR TREATING METASTATIC CANCER” (BRISTOL-MYERS SQUIBB COMPANY, priority 2007, published 2010).

Legend:
[1] = tested on: MDA-MB-231 breast cancer cells; assay: MDA-MB-231 orthotopic model of tumor metastasis (lung metastases after resection of the primary tumor); format: in vivo; conditions: human MDA-MB-231 cells in mouse mammary fat pad, tumors resected day 24, treatment from day 28, IP twice weekly; Comp-I 30 mg/kg, bevacizumab 5 mg/kg; control cohort 84%
Source text: MDA-MB-231 breast tumor cells implanted in mammary fat pad of mice and resultant tumors resected day 24. Drug treatment was initiated on day 28 and mice were sacrificed at 118 days and local regrowth and lung metastases evaluated.
Human MDA-MB-231 breast cancer cells were implanted in the mouse mammary fat pads at day 0 (1×10^6 MDA-MB-231 breast cancer cells). The resultant tumors were resected at day 24 and treatment initiated 4 days later (Mean tumor volume at resection=400 mm^3). Treatment groups were as follows: Control: PBS, Comp-I: 30 mg/kg, and bevacizumab 5 mg/kg (100 μL IP injections twice weekly). When mice were sacrificed, the extent of local regrowth and numbers of lung metastases were evaluated.

[2] = Bhuyan et al. Cancer Res. 42, 3532-3537 (1982); cited from earlier work

Compound | mice showing lung metastases (incidence of metastases) [1] [%] | potency in vitro relative to commonly used anti-cancer drugs (doxorubicin, methotrexate, vincristine) [2]
bevacizumab | 74 | –
COc1c(O)c2c(c3cc(C(=O)N4CCc5c4c(O)c(OC)c4[nH]c(C(=O)N6CC7CC78C6=CC(=O)c6[nH]cc(C)c68)cc54)[nH]c13)CCN2C(N)=O (centres unmarked) [CC-1065] | – | about 1000 fold
